What was measured:
OA-HAC pool = test: Alanine scanning of peptide p[63-82], gene expression and bioactivity score; type: cell-based, human; conditions: pool of 18 OA-HACs, 100 nM; for impact of alanine substitution on peptide p[63-82] bioactivity (bioactivity score): 24 h, score = sum of fold change of COL10A1, ALPL, MMP13, COL2A1, NKX3-2 versus wild-type (Figure 5C)
Protocol: Figure 5 Molecular characterization of peptides p[63−82] and p[113−132] (A) A pool of OA-HACs (n = 4 donors) was transfected with a scrambled siRNA or with an NKX3-2 siRNA (100 nM siRNA) and cultured for 24 h. Cultures were then exposed to peptide p[63−82] or p[113−132] (100 nM peptide). Samples were harvested 24 h later and analyzed for the expression of the indicated mRNAs (normalized to 28S rRNA). (B) SW1353 chondrocytic cells were transfected with BRE (SMAD1/5/8 reporter) or CAGA12 (SMAD2/3 reporter) firefly luciferase-reporter plasmids. A CMV-Gaussia plasmid was cotransfected as a transfection control. Cells were then cultured for 24 h and subsequently exposed to control, p[63−82], or p[113−132] for 8 h. Firefly and Gaussia bioluminescence were measured in cells and medium (respectively), and relative light units (RLUs) of firefly luciferase were normalized for the Gaussia luciferase signal. The normalized firefly luciferase signal of the control condition was set at 1, and peptide conditions were calculated relative to the control condition (FL/GL). Error bars represent mean ± SEM; statistical significance for peptide conditions versus siScrambled or siNKX3-2 (A) or control condition (B) as determined by unpaired two-tailed Student’s t test is represented as ∗p < 0.05, ∗∗p < 0.01, and ∗∗∗p < 0.001. (C) An alanine scanning library of peptide p[63−82] was synthesized, and the pool of 18 OA-HACs originally used for the full library scanning (Figure 1) was exposed to individual peptides from the alanine scanning library (100 nM peptide) for 24 h. An alanine-scanning bioactivity score (sum of the fold change gene expression of COL10A1, ALPL, MMP13, and COL2A1 plus NKX3-2 of the alanine-substituted peptides versus the wild-type p[63−82] peptide) was calculated for each alanine substitution in the amino acid sequence of peptide p[63−82] and is represented by the height of each letter on the y axis (data in Figure S4). (D) Multiple sequence alignment of the human BMP7 p[63−82] peptide with the homologous region in BMP7 of other species.
We aimed to further understand the sequence dependency of the peptide bioactivity. Peptide p[63−82] was derived from the central region within BMP7, and since this yielded a limited series of bioactive peptides (Figures 1B and S2), we further focused our analyses on peptide p[63−82]. To determine which amino acids are important for the bioactivity of peptide p[63−82], an alanine-scanning peptide library was synthesized, based on systematic alanine substitution of consecutive amino acids in the peptide p[63−82] sequence (Table S1). This alanine-scanning library was then screened by exposing an OA-HAC pool (the same pool that was used for the full library scanning in Figure 1) for 24 h to 100 nM of each peptide in the alanine-scanning library. The bioactivity of each peptide was determined by measuring gene expression of COL10A1, ALPL, MMP13, COL2A1, and NKX3-2 (Figure S4). Changes in the bioactivity of the alanine-scanning library peptides were combined into a “bioactivity score” of each individual substituted amino acid in the parental p[63−82] peptide (Figure 5C). […] The region in BMP7 from which peptide p[63−82] was derived and the G7 position in it are evolutionary highly conserved, as determined by sequence alignment of BMP7 sequences from various animal species (Figure 5D).
For the peptide-screening and alanine-scanning experiments, cDNA was prepared using the Cells-to-Ct kit (Invitrogen) according to the manufacturer’s protocol. For the other experiments, cells or homogenized tissues (Mikro-Dismembrator; Braun Biotech International) were lysed in TRIzol (Life Technologies) and RNA isolation and cDNA synthesis were performed as described earlier.[27]^,[57] Quantitative real-time PCR was performed using Takyon qPCR Master Mix plus blue for SYBR Green (Eurogentec). […]

[1] = test system: primary human OA articular chondrocytes (OA-HACs); test: BMP7 peptide library screening, quantitative real-time PCR of OA chondrocyte phenotype genes; type: cell-based; conditions: pool of 18 OA-HAC donors, scrambled peptides 100 nM, 24 h (Figure 2G)
Source text: To investigate whether BMP7 harbors potential peptide sequences that improve the OA chondrocyte phenotype, a peptide library was designed from the mature 139 amino acid-long human BMP7 sequence (Table S2). The peptide library was designed as 20-mer peptides with 2 amino acid intervals (18 amino acid overlap) between individual peptides and with all cysteine residues substituted by serine residues to avoid uncontrolled oxidation of cysteine groups. This yielded 61 individual peptides covering the complete mature human BMP7 sequence (Figure 1A). The peptide library was screened using a pool of primary human OA articular chondrocytes (OA-HACs) from 18 individual donors. Prior to pooling, individual OA-HAC isolates were tested for their responsiveness to BMP7 (Figure S1). The screening was conducted by exposing the OA-HAC pool for 24 h to a concentration series (1, 10, 100, or 1,000 nM) of each peptide from the library. […] This is defined as reduced expression of collagen type X alpha 1 chain (COL10A1), alkaline phosphatase (ALPL), Runt-related transcription factor 2 (RUNX2), ADAMTS5, MMP13, prostaglandin-endoperoxide synthase 2 or cyclooxygenase-2 (COX-2), and interleukin 6 (IL6) and increased expression of SRY-box transcription factor 9 (SOX9), COL2A1, and NKX3-2. […] Representative peptides inducing the above gene expression characteristics in OA-HACs were selected from both regions for further investigation. These were peptide p[63−82] and p[113−132] from the library, covering amino acids 63−82 and 113−132 of the mature BMP7 amino acid sequence. The complete quantitative real-time PCR data for peptides p[63−82] and p[113−132] […] For the two candidate peptides, we validated data using an independent cohort of three OA-HACs exposed to 100 nM of p[63−82] or p[113−132] or a combination of both peptides. […] Taken together, two regions in BMP7 were identified delivering peptide sequences that are able to improve the OA chondrocyte phenotype.
Figure 1 BMP7 peptide library screening on primary human OA articular chondrocytes (OA-HACs) (A) Schematic representation of the design of the human BMP7 peptide library. (B) COL10A1 mRNA expression in samples from the library screening on a pool of 18 OA-HACs individually exposed for 24 h to the peptides (100 nM) in the library. Data are shown as compared to the control condition (white bar) and full-length BMP7 (1 nM; gray bar). The two blue bars represent candidate peptides p[63−82] and p[113−132]. […] Error bars represent mean ± SEM, and statistical significance for peptide condition or BMP7 versus control condition as determined by unpaired two-tailed Student’s t test is represented as ∗p < 0.05, ∗∗p < 0.01, and ∗∗∗p < 0.001; NS, not significant.
Figure 2 Bioactivity of BMP7-derived peptides p[63−82] and p[113−132] on OA-HACs Complete peptide library screening quantitative real-time PCR dataset for peptides p[63−82] and p[113−132] is presented. (A) SOX9, COL2A1, and NKX3-2 mRNA expression in the 18 OA-HAC pool exposed to 1,000, 100, 10, or 1 nM of peptide p[63−82] and p[113−132] is shown and presented relative to control (black bars) and alongside full-length BMP7 (white bars). (B) Similar to (A) but for chondrocyte hypertrophy-associated genes RUNX2, COL10A1, and ALPL. (C) Similar to (A) but for cartilage extracellular matrix remodeling-associated genes MMP13 and ADAMTS5 and inflammation-related genes COX-2 and IL-6. (D) Glycosaminoglycan (GAG) content (normalized to total protein content) on an independent cohort of three individual OA-HAC donors treated with 100 nM peptides p[63−82] and p[113−132] for 24 h. (E) Alkaline phosphatase (ALP) activity (normalized to total protein content) in similar samples from (D). (F) Prostaglandin E2 (PGE2) levels in culture supernatant in similar samples from (D). […]

Row | Substance | impact of alanine substitution on peptide p[63-82] bioactivity (bioactivity score) (OA-HAC pool) | other results
1 | H-AAAYSEGESAFPLNSYMNAT-OH [Y3A, alanine-scanning peptide of p[63−82], substitution position 03] | important impact | 
2 | H-AAYYSEAESAFPLNSYMNAT-OH [G7A, alanine-scanning peptide of p[63−82], substitution position 07] | important impact | response on chondrocyte hypertrophy (OA-HAC pool; 24 h (Figure S4)): reciprocal response; impact on the chondrocyte phenotype-modulating action of the peptide (OA-HAC pool; 24 h (Figures 5C, S4)): largest impact
3 | H-AAYYSEGASAFPLNSYMNAT-OH [E8A, alanine-scanning peptide of p[63−82], substitution position 08] | important impact | 
4 | H-AAYYSEGESAAPLNSYMNAT-OH [F11A, alanine-scanning peptide of p[63−82], substitution position 11] | important impact | 
5 | H-AAYYSEGESAFPLNSAMNAT-OH [Y16A, alanine-scanning peptide of p[63−82], substitution position 16] | important impact | 
6 | H-AAYYSEGESAFPLNSYANAT-OH [M17A, alanine-scanning peptide of p[63−82], substitution position 17] | important impact | 
7 | H-VYISNVDDYSNKFLLKVRSM-OH [scrambled p[113−132], scrambled version of peptide p[113−132], reference compound] |  | sequence specificity: expression of COL2A1, RUNX2, COL10A1, and COX-2 [1]: neither one of them was able to recapitulate the bioactivity

Source: publication PMC8022858, “Discovery of bone morphogenetic protein 7-derived peptide sequences that attenuate the human osteoarthritic chondrocyte phenotype” (Molecular Therapy. Methods & Clinical Development, 2021)
